pIC50: −log10 of the molar value.
How the values were obtained:
NIH-H358 Cell Line = experiment: 3D CellTiter-Glo cell viability assay; format: cell-based; conditions: 168 h, NIH-H358 cells in 0.65% methylcellulose, 7 days' compound treatment
Method: Example 5: Efficacy Testing in 3D Viability Assay for NIH-H358 Cell Line
The protocol to perform 3D CellTiter-Glo™ cell viability assay is as follows:
Day—1: Cell plating • Adjust cell concentrations to 1×10^5 cells/ml with respective medium. (Cell concentration is adjusted according to data base or density optimization assay). Mix 3.5 mL of cell suspension 6.5 mL of 1% methylcellulose. Mix and wait for bubbles to disperse before pipetting. This step yields 10 ml of cell suspension in 0.65% methylcellulose solution. Add 99.5 μL cell suspensions to 96-well plates according to plate map with final cell density. • Two duplicate plates will be set up. One is for day 0 reading (T0) and the other will be cultured in incubator for reading at the end point. • Incubate the plates overnight in humidified incubator at 37° C. with 5% CO2.
Day 0: T0 plate reading and compound treatment • Take T0 plate, add 0.5 μL culture medium to each well for T0 reading. • Add 100 μl CellTiter-Glo® Reagent to each well. • Mix contents for 2 minutes on an orbital shaker to facilitate cell lysis. • Allow the plate to incubate at room temperature for 10 minutes to stabilize luminescent signal. • Record luminescence using EnVision Multi Label Reader. • Dilute the test articles at the concentration indicated at Test Articles Dilution. Add 0.5 μL of each 200× compound working solutions according to plate inoculation map.
Day 7: Plate reading of 7 days' compound treatment • Add 100 μL CellTiter-Glo® Reagent to each well. • Mix contents for 2 minutes on an orbital shaker to facilitate cell lysis. • Allow the plate to incubate at room temperature for 10 minutes to stabilize luminescent signal. • Record luminescence using EnVision Multi Label Reader.

[1] = test system: PANC-1. epithelioid carcinoma of the pancreas cell line bearing KRas^G12D oncogenic mutation; experiment: Antiproliferative MTS assay, PANC-1 cells; format: cell-based; conditions: Homo sapiens, PANC-1, 72 h, compounds 1-23 and 47-52 median of experiments, 24-46 estimations and/or preliminary results, read-out: IC50 values: cell proliferation inhibition, Panc-1
Method: Cell line #3: PANC-1. epithelioid carcinoma of the pancreas cell line bearing KRas^G12D oncogenic mutation
(§1) Cell lines were cultured in DMEM or RPMI-1640 supplemented with FBS 10%. In order to assess the antiproliferative effect of compounds, cells were seeded at a density of 1.8×10^3, 6.2×10^3, 7.8×10^3, 21×10^3 and 2×10^3 cells/cm^2, respectively, in tissue culture microplates and were incubated in humidified atmosphere at 5% CO2. 24 h later, compounds dissolved in DMSO 100% were added for different final concentrations ranging between 0.1 and 50 μM for a final DMSO concentration of 0.5% and the plates were incubated for another 72 h. After incubation, proliferation was quantified using CellTiter 96® Aqueous Non-Radioactive Cell Proliferation Assay-MTS (Promega #G5421) following manufacturer instructions. Amount of 490 nm absorbance is directly proportional to the number of living cells. Absorbance was recorded with a BMG Fluostar Optima Microplate Reader and normalized to control with vehicle.

[2] = test system: H358. non-small cell lung cancer line bearing KRas^G12C oncogenic mutation; experiment: Antiproliferative MTS assay, H358 cells; format: cell-based; conditions: Homo sapiens, NCI-H358, 72 h, compounds 1-23, 47-52 and Reference Example 1 median of experiments, 24-46 estimations and/or preliminary results, read-out: IC50 values: cell proliferation inhibition, H358
Method: Cell line #2: H358. non-small cell lung cancer line bearing KRas^G12C oncogenic mutation
as §1

[3] = test system: A549. Lung carcinoma cell line bearing KRas^G12S oncogenic mutation; experiment: Antiproliferative MTS assay, A549 cells; format: cell-based; conditions: Homo sapiens, A549, 72 h, compounds 1-23 and 47-52 median of experiments, 24-46 estimations and/or preliminary results, read-out: IC50 values: cell proliferation inhibition, A549
Method: Cell line #1: A549. Lung carcinoma cell line bearing KRas^G12S oncogenic mutation
as §1

[4] = test system: RPMI. myeloma cell line bearing KRas^G12A oncogenic mutation; experiment: Antiproliferative MTS assay, RPMI cells; format: cell-based; conditions: 72 h, compounds 1-23 and 47-52 median of experiments, 24-46 estimations and/or preliminary results, read-out: IC50 values: cell proliferation inhibition, RPMI
Method: Cell line #4: RPMI. myeloma cell line bearing KRas^G12A oncogenic mutation
as §1

[5] = test system: subcutaneous NCI-H358 Human Lung Cancer Model; experiment: Efficacy in xenograft studies (tumor growth inhibition); format: in vivo, NCr nude mice; conditions: for Oral anti-tumor activity: 20 mg/kg BID peroral, subcutaneous NCI-H358 xenograft; for TGI (tumor growth inhibition): NCI-H358 xenograft, NCr nude mice
Source text: (§2) Evaluation of the efficacy of compounds 6, 11 and 13 in the treatment of subcutaneous NCI-H358 Human Lung Cancer Model in NCr nude mice.
(§3) The treatment with compound 6 started when the tumors size reached 170 mm^3 (study 1). This value was 190 mm^3 in the case of compounds 11 and 13 (study 2).
Studies endpoints: The major endpoints of the study included the following:
Tumor growth inhibition (TGI): TGI(%) is an indication of antitumor effectiveness, and it is expressed as: TGI (%)=100×(1−T/C). T and C were the mean tumor volume of the treated and control groups, respectively, on a given day.

[6] = Body weight and tolerability in xenograft studies; format: in vivo; conditions: 20 mg/kg BID peroral, mice bearing NCI-H358 xenograft
Source text: as §2, §3
The results of the body weight changes in the tumor bearing mice are shown in FIG. 1 (p.o. is peroral; i.p. is intraperitoneal). The body weight of the animals at the end of the treatment with the three compounds was only slightly below the body weight of the respective vehicle control groups.

[7] = Study 2: 20 mg/kg peroral BID × 27 days

SMILES	pIC50 (NIH-H358 Cell Line)	pIC50 [1]	pIC50 [2]	pIC50 [3]	pIC50 [4]	Oral anti-tumor activity [5]	TGI (tumor growth inhibition) ([5]; Study 1: 20 mg/kg peroral BID × 29 days) [%]	Tolerability / safety of dose [6]	TGI (tumor growth inhibition) [5, 7] [%]
COc1ccc(CCOc2cc3c(cc2OC)CCN(C(=O)N[C@@H](C)C(F)(F)F)C3c2ccc(C)cc2C)cc1N (stereo partly shown) [Compound 48]	6.43	6.30	7.00	< 6.00	7.40				
CCNC(=O)N1CCc2cc(OC)c(OCCc3ccc(OC)c(N)c3)cc2C1c1ccc(C(F)(F)F)cc1C (stereo not shown) [Compound 10]	6.44	6.70	6.52	6.05	7.00				
CCNC(=O)N1CCc2cc(OC)c(OCCc3ccc(OC)c(N)c3)cc2C1c1ccc(N(C)C)cc1C (stereo not shown) [Compound 52]	< 6.00	6.00	6.00	< 5.70	6.70				
CCNC(=O)N1CCc2cc(OC)c(OCCc3ccc(OC)c(N)c3)cc2C1c1ccc(C)cc1C (stereo not shown) [Compound 6, 7-(3-amino-4-methoxyphenethoxy)-1-(2,4-dimethylphenyl)-N-ethyl-6-methoxy-3,4-dihydroisoquinoline-2(1H)-carboxamide]	6.90	6.70	6.70	6.22	7.00	significant oral anti-tumor activities	27.09	tolerate 20 mg/kg BID and safe	
CCNC(=O)N1CCc2cc(OC)c(OCCc3ccc(OC)c(O)c3)cc2C1c1ccc(C)cc1C (stereo not shown) [Compound 5, 1-(2,4-dimethylphenyl)-N-ethyl-7-(3-hydroxy-4-methoxyphenethoxy)-6-methoxy-3,4-dihydroisoquinoline-2(1H)-carboxamide]	6.27	6.70	7.00	6.15	7.00				
CCNC(=O)N1CCc2cc(OC)c(OCCc3ccc(OC)c(N)c3)cc2C1c1ccc(OC)cc1C (stereo not shown) [Compound 11]	6.38	6.70	6.70	6.10	7.00	significant oral anti-tumor activities		tolerate 20 mg/kg BID and safe	48.22
COc1ccc(CCOc2cc3c(cc2OC)CCN(C(=O)NCc2cocn2)C3c2ccc(C)cc2C)cc1O (stereo not shown) [Compound 2]	6.52	6.52	6.40	6.00	6.70				
COc1ccc(CCOc2cc3c(cc2OC)CCN(C(=O)NCc2cocn2)C3c2ccc(C)cc2C)cc1N (stereo not shown) [Compound 4]	6.25	6.40	6.70	6.05	6.52				
CCNC(=O)N1CCc2cc(OC)c(OCCc3ccc(OC)c(N)c3)cc2C1c1ccc(Cl)cc1C (stereo not shown) [Compound 13]	6.83	6.52	6.52	6.00	7.00	significant oral anti-tumor activities		tolerate 20 mg/kg BID and safe	26.99

Continued, in another order:

pIC50 (NIH-H358 Cell Line)	pIC50 [1]	pIC50 [2]	pIC50 [3]	pIC50 [4]	SMILES	Oral anti-tumor activity [5]	TGI (tumor growth inhibition) ([5]; Study 1: 20 mg/kg peroral BID × 29 days) [%]	Tolerability / safety of dose [6]	TGI (tumor growth inhibition) [5, 7] [%]
6.27	6.10	6.05	6.22	6.22	CCNC(=O)N1CCc2cc(OC)c(OCCc3ccc(F)c(N)c3)cc2C1c1ccc(C)cc1C (stereo not shown) [Compound 7]				
< 6.00	5.70	5.82	5.70	5.82	COc1cc(O)cc(CCOc2cc3c(cc2OC)CCN(C(=O)NCc2cocn2)C3c2ccc(C)cc2C)c1 (stereo not shown) [Compound 1]				
6.12	6.70	6.30	< 5.70	6.82	COc1ccc(C2c3cc(OCCc4ccc(OC)c(N)c4)c(OC)cc3CCN2C(=O)N[C@@H](C)C(F)(F)F)c(C)c1 (stereo partly shown) [Compound 50]				
< 6.00	< 5.70	< 5.70	< 5.70	< 5.70	COc1cc2c(cc1OCCc1cc(O)cc(Cl)c1)C(c1ccc(C)cc1C)N(C(=O)NCc1cocn1)CC2 (stereo not shown) [Compound 3]				
6.75	7.15	6.82	6.70	< 6.00	CCNC(=O)N1CCc2cc(OC)c(OCCc3ccc(OC)c(N)c3)cc2C1c1ccc(Br)cc1C (stereo not shown) [Compound 51]				
6.19	6.52	6.40	6.00	6.70	CCNC(=O)N1CCc2cc(OC)c(OCCc3ccc(N)c(OC)c3)cc2C1c1ccc(C)cc1C (stereo not shown) [Compound 9, 7-(4-amino-3-methoxyphenethoxy)-1-(2,4-dimethylphenyl)-N-ethyl-6-methoxy-3,4-dihydroisoquinoline-2(1H)-carboxamide]				
< 5.52	6.70	6.70	6.05	6.70	CCNC(=O)N1CCc2cc(OC)c(OCCc3ccc(OC)c([N+](=O)[O-])c3)cc2C1c1ccc(C)cc1C (stereo not shown) [Compound 8]				
6.02	< 6.00	6.22	< 5.70	6.40	COc1ccc(CCOc2cc3c(cc2OC)CCN(C(=O)N[C@H](C)C(F)(F)F)C3c2ccc(C)cc2C)cc1N (stereo partly shown) [Compound 47]				
